The text below walks through data of patent US20260337177A1, “TEAD CORE INHIBITORS FOR CANCER THERAPEUTICS” (University of Florida Research Foundation, Incorporated, priority 2023, published 2026).

One experiment concerns the target TEAD2-YBD C380S (Homo sapiens, UniProt Q15562, C380S). Kind of experiment: Intact protein mass spectrometry, TEAD2-YBD C380S variant. In kind it is binding. The note with it: 15 hours. The source says:
To substantiate the covalent interaction between Compound 22 and TEAD2-YBD, intact mass spectrometry was employed to monitor the protein's mass change upon binding with the compound.
Human TEAD2-YBD (217-447) (TEAD2_HUMAN, UniProtKB Q15562) was expressed and purified as previously described.^79 To eliminate endogenous palmitoylation, Cys380Ser mutant (TEAD2-C380S) was generated and purified using the same protocol. [00392]hTEAD2 was expressed, purified, and deacylated as reported.^52 Briefly, the yap-binding domain (YBD) of […] was cloned in pET28a vector with the N terminal 6x His tag. The recombinant protein was induced at 16 ° C using 0.2 mM isopropyl bD-1-thiogalactopyranoside (IPTG) for 10 h for overexpression in Escherichia coli strain BL2 (DE3) CodonPlus competent cells (Invitrogen). Then cells were harvested, followed by lysis and the supernatant was loaded onto the HisTrap FF column (GE Healthcare). The hTEAD4-YBD was eluted with elution buffer (50 mM Hepes 8.0, 300 mM NaCl, 10% Glycerol, 1 mM TCEP, 125 mM imidazole). To eliminate the endogenous fatty acid, the protein was incubated with 0.2 mM hydroxylamine for 2 h and further purified through gel filtration chromatography in the final buffer (25 mM Hepes pH 8.0, 100 mM NaCl, 1 mM TCEP, and 5% glycerol). Collected fractions were concentrated to 5 mg/mL and flash frozen for further use. […]

The test system of experiment [1] is Huh7 cells. Put plainly: Colony formation (clonogenic) assay, Huh7. The format is cell-based. The note with it: Homo sapiens, Huh-7, 48 h, read-out: Colony formation, rate of inhibition, Huh7. The protocol:
The ability of compound 22 to inhibit the proliferation of liver cancer cell lines Huh7 and HepG2 was further assessed using a clonogenic assay.
Huh7 or HepG2 (500 cells/well) were plated into 6 well plates (500 cells per well) and treated with 0 or 5 μM compound 22. Colonies were grown in the absence of soft agar for 2 weeks in a humidified atmosphere of 5% C02 at 37 ° C Crystal violet blue solution (Sigma) was used to stain the colonies for one hour and fixed in methanol followed by counting under a microscope. Triplicate wells were used for each cell line and three independent experiments were performed.

In experiment [2] the test system is Huh7 cells. Put plainly: Apoptosis by Annexin V/PI flow cytometry, Huh7. In kind it is cell-based, human. The note with it: 48 h. The protocol: In order to gain deeper insights into the underlying anticancer mechanism of compound 22, experiments were performed to validate whether the induction of G1 phase cells by compound 22 was linked to apoptosis. To achieve this, the cells treated with compound 22 were subjected to PI and FITC-annexin V staining to detect apoptotic cells. […] The proportions of total apoptosis including the early stage apoptosis and the later stage of apoptosis were 66.8%, and 83.5%, respectively, at concentrations of 5 and 10 μM. This trend was similarly observed in the case of HepG2 cells. […] The impact of compound 22 on inducing cell apoptosis was less pronounced in HepG2 cells compared to Huh7 cells, aligning with the outcomes of the cell cycle analysis, providing further coherence to the observed effects of compound 22 on these cell lines.
Apoptosis was detected using an Annexin V-FITC apoptosis detection kit (Thermo Fisher Scientific) following the manufacturer’ instructions. Briefly, about 50000 cells were suspended in 500 μl of binding buffer. The cells were incubated with 5 μl FITC-conjugated Annexin V for 15 minutes and incubated with 5 μl propidium Iodide staining solution for 15 minutes in darkness at room temperature. Cell apoptosis was then analyzed by flow cytometry using a FACSCalibur flow cytometer (Becton Dickinson, San Jose, CA).
A general note: Flow cytometry measures light scatter and fluorescence of single cells or particles in a stream.

The test system of a further experiment is CTGF. Put plainly: CTGF protein expression by western blotting in Huh7 cells. In kind it is cell-based, human. The note with it: dose-dependent. As for the experimental part:
Treated Huh7 cells were harvested and lysed in cold RIPA lysis buffer containing […] and phosphatase inhibitors. The protein concentrations were determined using the BCA Protein Assay kit. The prepared protein samples were loaded on and separated by 10% SDS-PAGE gel and then were transferred to PVDF membrane. Blots were blocked for 1 h at RT in blocking buffer and incubated with corresponding primary antibodies: anti-CTGF (ab227180), and anti-GAPDH (ab9485), at 4 ° C overnight. Then the blots were incubated with HRP-conjugated anti-rabbit secondary antibody in blocking buffer for 1.5 h at RT. The membranes were imaged with ChemiDoc MP imaging system.
A general note: A western blot detects proteins with antibodies after separation by electrophoresis.

The test system of the next experiment is CYR61. Kind of experiment: CYR61 mRNA expression by RT-qPCR in HepG2 cells. In kind it is cell-based, human. The note with it: dose-dependent. The protocol: Huh7 and HepG2 liver cancer cells were seeded at 1×10^6 cells/dish and allowed to adhere overnight. The cells were then treated with indicated doses of compounds in medium for 24 hours. The cells were then harvested, and total RNA was purified using the Aurum total RNA mini kit (Bio-Rad #732-6820) according to the manufacturer's instructions. Complementary DNA was synthesized from 500 ng total RNA template by iScript reverse transcription kit (Bio-Rad #1725037) according to the manufacturer's instructions. Real-time PCR reactions utilized 60 ng cDNA and PrimePCR primers from Bio-Rad (Unique Assay ID: human GAPDH-qHsaCEP0041396, human CTGF-qHsaCEP0024255, human CYR61-qHsaCEP0024230) designed for SYBR Green gene expression analysis (Bio-Rad #1726270). All reactions were carried out in triplicate using Quant Studio 3 PCR system (Applied Biosystems). Relative gene expression level was quantified via ΔΔCt method by using GAPDH as an endogenous reference.
For orientation: Quantitative PCR measures a nucleic acid by following its amplification.

Experiment [3] relates to Huh7 cells. Put plainly: MTT assay, Huh7 viability. The format is cell-based, human. The note with it: FIG. 9.
In experiment [4] the test system is Huh7 cells. Put plainly: Apoptosis by calcein AM and ethidium homodimer-1 staining, Huh7. The format is cell-based, human.

TEAD2-YBD C380S, sequence (Q15562 217-447 C380S): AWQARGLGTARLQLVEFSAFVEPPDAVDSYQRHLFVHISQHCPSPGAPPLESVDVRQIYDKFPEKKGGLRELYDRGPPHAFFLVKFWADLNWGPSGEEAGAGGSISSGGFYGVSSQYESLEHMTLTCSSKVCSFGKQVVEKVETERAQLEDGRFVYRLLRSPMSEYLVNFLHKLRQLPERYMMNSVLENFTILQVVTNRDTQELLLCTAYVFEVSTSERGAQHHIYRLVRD

The term inhibition denotes the change of the read-out against control, counted positive when it falls. `O=C(CCl)c1c[nH]c2cc(Cl)c(OCc3cccc(C(F)(F)F)c3)cc12` [Compound 22, 2-chloro-1-(6-chloro-5-((3-(trifluoromethyl)benzyl)oxy)-1H-indol-3-yl)ethan-1-one]: the “Mass shift of TEAD2-YBD C380S variant” value on TEAD2-YBD C380S was “absence of a mass shift”. Further, in the experiment on Huh7 cells [1], the inhibition at 5 µM is 62.5%. Moreover, the “Proportion of total apoptosis (early + late), Huh7” value with Huh7 cells [2] (5 μM) amounted to 66.8%; in the experiment with Huh7 cells [2] (10 μM), 83.5%. Moreover, in the experiment on CTGF, the “CTGF protein expression, Huh7” value is given as “suppression of CTGF protein production”. Further, the “CYR61 mRNA expression, HepG2” value with CYR61 is listed as “significantly inhibited”. In addition, the “Huh7 viability, MTT assay” value in the experiment with Huh7 cells [3] is “inhibits”. Further, the Huh7 cell apoptosis entry in the experiment on Huh7 cells [4] was “promotes Huh7 cell apoptosis”.
